# Experimental data published in patent publication US11299715B2, “Use of iNOS inhibitors to increase viral yield in culture” (priority 2013, dated 2022).
# Key:
# [1] = system: wtHSV-1 KOS strain; experiment: wtHSV-1 KOS strain propagation in 293, HeLa and Vero cells with ATA; type: cell-based, HSV-1
# Description: (§1) The wtHSV-1 KOS strain and the ICP27-deficient derivatives of the wtHSV-1 KOS strain: vectors d27-1 (Rice and Knipe, J. Virol. (1990) 64:1704-1715), rHSV-rep2/cap2 and rHSV-EGFP (Kang et al., Gene Ther. (2009) 16:229-239) and their producer ICP27-complementing V27 cell line were obtained from AGTC (Alachua, Fla.). The wtHSV-1 MacIntyre strain, purchased from Advanced Biotechnologies Inc. (ABI, Columbia Md.) and wtHSV-1 KOS strain were propagated in Vero, 293 or HeLa cell lines. Infectious vector particles were harvested 72 hr postinfection by recovering culture supernatant. The titers of HSV-1 stocks in DNase resistant particles/ml (DRP/ml) were determined by Taqman assay. Viral genomes within crude culture medium were quantified via treatment in the presence of DNase I (50 U/ml final; Promega) at 37° C. for 60 min, followed by proteinase K (Invitrogen) digestion (1 U/ml) at 50° C. for 60 min, and then denatured at 95° C. for 30 min. Linearized plasmid pZero 195 UL36 (obtained from AGTC, Inc., Alachua, Fla.) was used to generate standard curves.
# (§2) ATA (Sigma-A1895 Aurintricarboxylic acid practical grade, ≥85% (titration), powder) stock solution was generated as 500 μM concentration in 100 mM sodium bicarbonate water solution. ATA stock solution was further diluted in DMEM+/−10% fetal bovine serum (FBS, Hyclone, Waltham, Mass.) into concentration ranges of […] ATA (8.5-21 μgATA/ml). The HSV-1 infection at multiplicity of infection of 0.15 (MOI=0.15) (typically 6×10^5 cells in a 6-well plate) was performed in 40% (⅖ vol) of the total final media volume for 1-2 hrs and the remaining media (60% or ⅗ of the total final volume) was added during the dilution step. The cells were then incubated 72 hours and supernatant harvested to perform forming units per milliliter (PFU/ml) and DRP/ml titer assays.
# (§3) Supernatants containing virus were harvested after three days as described above. […] Finally, ATA also appeared to inhibit both types of HSV-1 viruses in HeLa cells. Two-way ANOVA; Bonferroni test; −ATA vs. +ATA: ***: p<0.001, ns: p>0.05; n=4 independent experiments.
# (§4) In order to illuminate the ATA mechanism of action by human genome array and the fact that Vero and V27 are monkey-derived cell lines, wtHSV-1 propagation was tested in several human cell lines (FIGS. 4A-4B). A propagation of two wild type HSV-1 (wtHSV-1) strains, KOS and McIntyre, were compared in three cell lines: human embryonic kidney 293 (293 cells), human cervical cancer HeLa cells and African green monkey kidney epithelial Vero cells. The experiments were carried out in 10% FBS-containing media following the ATA I protocol scheme, where 50 μM ATA was supplemented during the infection step and further diluted to 20 μM ATA concentration (see Material and Methods).
# [2] = system: wtHSV-1 McIntyre strain; experiment: wtHSV-1 McIntyre strain propagation in 293, HeLa and Vero cells with ATA; type: cell-based, HSV-1
# Description: as §1, §2, §3
# For statistical calculations, a larger study with a set of ten independent experiments (n=10) was conducted in 6-well plates with or without ATA added during the infection step (Step 1) comparing replication-deficient d27-GFP and also wtHSV-1 McIntyre strain in order to investigate, whether ATA could increase the titer in the wtHSV-1 strain as well (FIG. 4B). ATA was added at […] to confluent cell monolayers, V27 cells for d27-1 or 293 cells for wtHSV-1 McIntyre, during the infection step (Step 1) and the cells were infected with vectors at MOI=0.15 while ATA was diluted 1 hr later to a final […] concentration.
# as §4
# [3] = system: NOS2 = iNOS; experiment: Affymetrix Gen Array, NOS2 expression in 293 cells; type: cell-based, human; settings: AF049656
# Experimental: Confluent 293 cells (2.4×10^6 cells in a 75 cm^2 flask) were cultured in DMEM+10% FCS for approximately 20 hrs and were then infected with one plaque forming unit per cell (PFU/cell) of HSV-1 MacIntyre Strain for 90 min. ATA at a concentration 20 μM (final) was added 90 min post-infection. The infected cells were harvested at 24 h after infection. Total RNA of sufficient quality and quantity was isolated from suspension using RNeasy Plus Mini Kit (QIAGEN, Valencia, Calif.) according to the manufacturer's instructions. Whole genome expression profiling was performed on Affymetrix Human U133 Plus 2.0 Array by the Asuragen, Inc. 3 μg total RNA was provided as input material.
# Overall, RNA quality assessed on the bioanalyzer had RIN values of >9. Array hybridization and scaling factors were within passing quality control range. After scanning, raw expression CEL files were processed with Affymetrix Expression Console vs.1.1.2 (affymetrix.com). Each CEL file was processed with Robust Multichip Analysis (RMA) and a summarized table was exported as a text file. All downstream genomics and statistical analyses were done with JMP Genomics (version 5) (jmp.com/software/genomics). First, a filtering step was applied to filter-out low expression, specifically, those values below 6 in log^2 mode in at least 2 out of 8 samples. […]
# [4] = 50 μM ATA at Step 1, 20 μM after Step 2, 293 cells
# [5] = 50 μM ATA at Step 1, 20 μM after Step 2, HeLa cells
# [6] = 50 μM ATA at Step 1, 20 μM after Step 2, Vero cells, 10% FBS
structure (smiles),measurement,setting,value
"O=C(O)C1=CC(=C(c2ccc(O)c(C(=O)O)c2)c2ccc(O)c(C(=O)O)c2)C=CC1=O [ATA, 5-((3-carboxy-4-hydroxyphenyl)(3-carboxy-4-oxo-2,5-cyclohexadien-1-ylidene)methyl)-2-hydroxybenzoic acid]",HSV-1 KOS growth in 293 cells,[1]; [4],inhibit
same,propagation of HSV-1 KOS in HeLa cells,[1]; [5],inhibit
same,yield of wtHSV-1 KOS in Vero cells,[1]; [6],increased
same,wtHSV-1 KOS titer in Vero cells,"[1]; 50 μM ATA at infection, diluted to 20 μM, 10% FBS, n=4, without ATA 1.7×10^8",9.1×10^8 DRP/ml
same,"293 or Vero titers with ATA, KOS",[1]; summary statement,up to 1×10^9 DRP/ml
same,increase of wt HSV-1 KOS yields,[1]; summary statement,1 log
same,wtHSV-1 McIntyre titers in 293 cells,[2]; [4],reached the highest titers
same,propagation of HSV-1 McIntyre in HeLa cells,[2]; [5],inhibit
same,yield of wtHSV-1 McIntyre in Vero cells,[2]; [6],increased
same,wtHSV-1 McIntyre virus titer in 293 cells,"[2]; 50 μM ATA at infection, diluted to 20 μM, 10% FBS, n=4, without ATA 1.4×10^8",1.2×10^9 DRP/ml
same,increase of wtHSV-1 McIntyre titer after ATA addition,"[2]; 293 cells, 6-well plates, n=10, ATA 50 μM at Step 1, final 20 μM, MOI 0.15",9.1 times
same,wtHSV-1 McIntyre titer after ATA addition,"[2]; 293 cells, n=10, ATA 50 μM at Step 1, final 20 μM, without ATA 3.3×10^8",1.0×10^9 DRP/ml
same,"293 or Vero titers with ATA, McIntyre",[2]; summary statement,up to 1×10^9 DRP/ml
same,increase of wt HSV-1 McIntyre yields,[2]; summary statement,1 log
same,"NOS2 expression, ATA",[3]; ATA alone,−1.03
same,"NOS2 expression, HSV + ATA","[3]; HSV + ATA, HSV alone 2.05",1.72
